Assay results from ChEMBL document CHEMBL1201862, “PubChem BioAssay data set” (2004).
Activity calls are given as the source filed them.

Experiments:
[1] = cytotoxicity in OVCAR8 ovarian cancer cells, dose response, PAX8 project, cell-based, plate reader, dry powder samples (AID 743197); assay type: functional; conditions: OVCAR-8
[2] = non-specific cell cytotoxicity, dose response, cytotoxicity control for PAX8 inhibitor project, plate reader, dry powder samples (AID 743021); assay type: functional, cell-based
[3] = target: Paired box protein Pax-8 (Homo sapiens, UniProt Q06710); test: inhibitors of PAX8-driven TPO luciferase reporter, dose response, RMG-I cells, cherry-pick (AID 687027); assay type: functional, cell-based;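 further: luciferase reporter driven by Pax8 target thyroperoxidase promoter measured by SteadyGlo luminescence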
[4] = target: Potassium channel subfamily K member 3 (Homo sapiens, UniProt O14649); test: TASK1 (KCNK3) potassium channel inhibitors, SAR follow-up, CHO cells, FluxOR thallium flux (AID 652212); assay type: functional
[5] = target: Cytochrome P450 2C9 (Homo sapiens, UniProt P11712)
[6] = target: Histone-lysine N-methyltransferase NSD2 (Homo sapiens, UniProt O96028); assay type: biochemical
[7] = tested on: H9c2; test: cells; assay type: functional, cell-based; conditions: Rattus norvegicus, H9c2, Myocardium;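 further: confirmatory concentration-response retest of ultra-high-throughput screening hits for modulation of myocardial damage; cell death induced by hydrogen peroxide oxidative stress; compound pretreatment for 60 min then peroxide exposure for 2 h; potency is for protecting the cells against peroxide damage rather than for killing them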
[8] = target: DNA (cytosine-5)-methyltransferase 1 (Homo sapiens, UniProt P26358); test: DNMT1 methyltransferase inhibitors, confirmation, biochemical, fluorescent molecular beacon (AID 602386); assay type: functional
[9] = target: Glucose-6-phosphate 1-dehydrogenase (Homo sapiens, UniProt P11413); test: human G6PD enzyme inhibitors, dose response, selectivity assay for P. falciparum G6PD inhibitor project, biochemical, fluorescence (AID 504792); assay type: functional
[10] = THP-1 cell cytotoxicity, dose response, cytotoxicity control for Vif-APOBEC3G degradation inhibitor project, THP-1 cells (AID 1117359); assay type: functional; conditions: Human immunodeficiency virus 1, THP-1
[11] = target: Major prion protein (Homo sapiens, UniProt P04156); assay type: functional, cell-based
[12] = cells
[13] = target: DNA repair protein RAD52 homolog (Homo sapiens, UniProt P43351); assay type: functional, biochemical
[14] = target: T1, DNA repair and recombination protein RAD54-like (Homo sapiens, UniProt Q92698); test: inhibitors of human RAD54 branch migration, confirmation, biochemical, fluorescence, cherry-picked samples, dose series (AID 651657); assay type: functional
T1 sequence (Q92698 whole entry): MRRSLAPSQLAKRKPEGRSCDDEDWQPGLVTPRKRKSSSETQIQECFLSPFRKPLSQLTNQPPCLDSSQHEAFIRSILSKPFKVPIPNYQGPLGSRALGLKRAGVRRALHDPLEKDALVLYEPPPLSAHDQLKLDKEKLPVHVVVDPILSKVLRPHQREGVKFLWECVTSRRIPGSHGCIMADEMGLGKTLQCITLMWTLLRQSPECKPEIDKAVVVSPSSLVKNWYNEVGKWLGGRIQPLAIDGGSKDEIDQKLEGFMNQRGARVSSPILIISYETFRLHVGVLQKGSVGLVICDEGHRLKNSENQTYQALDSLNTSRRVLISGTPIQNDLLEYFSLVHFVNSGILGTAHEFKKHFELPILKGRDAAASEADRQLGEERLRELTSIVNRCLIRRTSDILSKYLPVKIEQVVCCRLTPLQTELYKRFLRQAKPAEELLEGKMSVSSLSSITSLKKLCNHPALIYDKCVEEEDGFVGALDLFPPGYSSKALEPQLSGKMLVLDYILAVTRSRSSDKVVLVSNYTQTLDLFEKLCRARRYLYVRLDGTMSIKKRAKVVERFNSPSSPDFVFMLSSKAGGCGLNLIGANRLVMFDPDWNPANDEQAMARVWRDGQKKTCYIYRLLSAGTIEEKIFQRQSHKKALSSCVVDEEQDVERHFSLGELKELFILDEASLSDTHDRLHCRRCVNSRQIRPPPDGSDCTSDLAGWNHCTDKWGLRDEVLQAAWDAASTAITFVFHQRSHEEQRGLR

[15] = target: T2, Ubiquitin-conjugating enzyme E2 N (Homo sapiens, UniProt P61088); assay type: functional;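 further: Dose-response confirmation in a TR-FRET assay detecting UBC13-driven polyubiquitin chain formation, inhibition measured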
T2 sequence (P61088 whole entry): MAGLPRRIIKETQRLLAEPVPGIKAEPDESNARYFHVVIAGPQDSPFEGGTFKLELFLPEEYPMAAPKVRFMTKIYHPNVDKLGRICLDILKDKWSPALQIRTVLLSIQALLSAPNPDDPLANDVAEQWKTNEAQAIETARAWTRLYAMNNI

[16] = LGR2 antagonists, dose response, cell-based, HEK293, CRE-luciferase reporter, cherry pick, set 2 (AID 743343); assay type: functional;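 further: transfected cells were stimulated with diluted bursicon conditioned medium after compound addition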
[17] = HepG2 cell cytotoxicity, dose response, cytotoxicity control, plate reader, cherry-pick, antagonist series (AID 743416); assay type: functional, cell-based
[18] = control 3'UTR Renilla luciferase suppression, dose response, counter-screen for Shn3 inhibitor project, cell-based, Clone20-Shn3RL, cherry-picked (AID 624133); assay type: functional
[19] = Fluorescence-based cell-based high throughput dose response assay for inhibitors of the interaction of nucleotide-binding oligomerization domain containing 2 (NOD2) and the receptor-interacting serine-threonine kinase 2 (RIPK2).; assay type: functional; conditions: Homo sapiens
[20] = MC4R antagonists, dose response, counter-screen for LGR2 antagonist project, cell-based, plate reader, cherry pick (AID 743444); assay type: functional;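 further: transfected HEK 293 cells stimulated with alpha-MSH peptide; potency of inhibitors of the alpha-MSH evoked signal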
[21] = target: COUP transcription factor 2 (Homo sapiens, UniProt P24468); test: Luminescence-based cell-based high throughput dose response assay to identify inhibitors of COUP-TFII (NR2F2).; assay type: functional;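 further: HEK293 cells transiently cotransfected with COUP-TFII expression vector and reporter; luciferase reporter luminescence driven by COUP-TFII from the pX2-168 reporter plasmid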
[22] = HEK293 cell cytotoxicity, dose response, cytotoxicity control, plate reader, cherry-picked samples (AID 743446); assay type: functional, cell-based
[23] = A549 cell cytotoxicity, dose response, cytotoxicity control, plate reader, cherry-pick, antagonist series (AID 743412); assay type: functional, cell-based
[24] = Shn3 3'UTR reporter inhibitors, dose response, cell-based, Clone20 osteoblasts, firefly luciferase, cherry-picked (AID 624132); assay type: functional;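 further: firefly luciferase luminescence from reporter carrying the Shn3 3'UTR in osteoblasts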
[25] = HepG2 cell cytotoxicity, dose response, cytotoxicity control, cherry-picks, set 5 (AID 1053118); assay type: functional, cell-based
[26] = target: T3, Trace amine-associated receptor 1 (Homo sapiens, UniProt Q96RJ0); test: Counterscreen for agonists of the human trace amine associated receptor 1 (hTAAR1): Fluorescence-based cell-based high throughput dose response assay to identify hTAAR1 agonist that also desensitize TAAR1 receptor response.; assay type: functional
T3 sequence (Q96RJ0 whole entry): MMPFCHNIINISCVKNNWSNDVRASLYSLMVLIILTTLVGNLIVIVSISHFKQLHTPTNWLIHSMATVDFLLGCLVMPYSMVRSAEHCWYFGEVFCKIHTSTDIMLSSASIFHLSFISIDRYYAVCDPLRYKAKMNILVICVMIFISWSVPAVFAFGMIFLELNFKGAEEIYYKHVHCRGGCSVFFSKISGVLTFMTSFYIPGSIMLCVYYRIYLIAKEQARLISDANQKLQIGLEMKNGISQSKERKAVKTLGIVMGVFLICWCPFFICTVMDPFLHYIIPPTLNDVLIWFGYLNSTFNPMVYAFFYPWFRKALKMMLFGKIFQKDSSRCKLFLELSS

[27] = target: T3, Trace amine-associated receptor 1; test: Fluorescence-based cell-based high throughput dose response assay to identify agonists of the human trace amine associated receptor 1 (TAAR1).; assay type: functional
[28] = cells; assay type: functional, cell-based
[29] = cells; assay type: functional, cell-based; remark: listed apart in the source
[30] = target: Large T antigen (Simian virus 40, UniProt P03070); assay type: functional, Betapolyomavirus macacae;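 further: Confirmatory-stage PubChem screen for compounds that inhibit SV40 T antigen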
[31] = HepG2 cell cytotoxicity, dose response, cytotoxicity control for Shn3 inhibitor project, CellTiter-Glo, cherry-picked (AID 624134); assay type: functional, cell-based
[32] = tested on: INS1; test: beta cell apoptosis inhibitors, cytokine rescue, dose response, luminescence, retest (AID 449756); assay type: functional, cell-based; conditions: Rattus norvegicus;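 further: cell death triggered by IL-1 beta plus TNF-alpha plus IFN-gamma mixture; protective hits raise ATP signal compared with cytokine alone wells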
[33] = tested on: HEK293; test: NOD1 signaling inhibitors, primary screen, cell-based, luminescence, uHTS (AID 1578); assay type: functional; conditions: Homo sapiens
[34] = tested on: HEK293; test: cells; assay type: functional, cell-based; conditions: Homo sapiens
[35] = Luminescence Cell-Based Dose Retest to Confirm Inhibitors of Cancer Stem Cells. [Related pubchem assays (depositor defined):AID2717, AID2721]; assay type: functional; conditions: Homo sapiens
[36] = tested on: HEK293; test: cells; assay type: functional, cell-based; conditions: Homo sapiens; remark: listed apart in the source
[37] = tested on: HEK293; test: NOD2 signaling inhibitors in MDP-stimulated cells, cell-based, uHTS, luminescence (AID 2001); assay type: functional; conditions: Homo sapiens
[38] = target: Albumin (Bos taurus, UniProt P02769); test: Counterscreen for inhibitors of T-cell receptor (TCR)-CD3 interaction: Fluorescence-based biochemical high throughput dose response assay to identify inhibitors of T-cell receptor (TCR)-CD3 interaction using a TAMRA-labeled BSA probe.; assay type: functional
[39] = reduction of Shn3 3'UTR firefly luciferase signal, dose response, Schnurri-3 inhibitor project, cell-based, Clone20 osteoblasts, cherry-pick, set 2 (AID 720490); assay type: functional;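 further: actives lower the luminescence signal as inhibitors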
[40] = target: Cytochrome P450 2D6 (Homo sapiens, UniProt P10635);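 further: CYP2D6 member of a cytochrome P450 panel assay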

Compound: COc1ccccc1C#Cc1ccc2c(c1)O[C@@H](CN(C)Cc1ccncc1)[C@H](C)CN([C@@H](C)CO)S2(=O)=O
- AC50 [1]: 33 µM (active)
- AC50 [2]: 33.2 µM (active)
- AC50 [3]: 2.84 µM (active)

Compound: CCOc1ccccc1NC(=O)c1cccc(NC(=O)c2ccc(C(F)(F)F)cc2)c1
- IC50 [4]: 0.22 µM (active)

Compound: Nc1ncc(-c2ccccc2)n1CC1CCCO1 (stereo unspecified)
- AC50 [5]: 14.1 µM (inconclusive)
- AC50 [6]: > 20 µM (inactive)
- IC50 [7]: > 79 µM (inactive)

Compound: COC1=C(N)C(=O)c2nc(C)ccc2C1=O
- IC50 [8]: 4.94 µM (active)
- IC50 [9]: 59.6 µM (inactive)
- CC50 [10]: 20.8 µM (active)
- AC50 [6]: 0.61 µM (active)

Compound: COc1ccc(-c2nc3ccc(Br)cn3c2Cc2cccc(Cl)c2)cc1OC
- IC50 [11]: 5.35 µM (active)
- IC50 [12]: > 138 µM (inactive)

Compound: Cc1ccc(-c2nc(NCCCN(C)C)c3ccccc3n2)cc1
- AC50 [13]: 7.08 µM (active)
- AC50 [14]: 10.6 µM (active)

Compound: CCC[C@@H](CN1CCC[C@H]1CN1C(N)=NC[C@H]1CC(C)C)N1C[C@@H](Cc2ccccc2)N(CCCC2CCCC2)C1=N
- AC50 [13]: 19.5 µM (active)
- IC50 [15]: > 20 µM (inactive)

Compound: CC1CC(C)(O)CC(C(O)CC2CC(=O)NC(=O)C2)C1=O (stereo unspecified) [RESACTIN A]
- AC50 [16]: 0.441 µM (active)
- AC50 [17]: 0.945 µM (active)
- AC50 [18]: 6.15 µM (active)
- IC50 [19]: 49.7 µM (inactive)
- AC50 [20]: 1.14 µM (active)
- IC50 [21]: 0.36 µM (active)
- AC50 [22]: 0.757 µM (active)
- AC50 [3]: < 0.26 µM (active)
- AC50 [23]: 0.424 µM (active)
- AC50 [24]: 0.339 µM (active)

Compound: CO[C@@H]1CN(C)C(=O)c2cc(NC(=O)Nc3ccc(Cl)c(Cl)c3)ccc2OC[C@H](C)NC[C@@H]1C
- AC50 [25]: > 52 µM (inactive)

Compound: OCCNc1nc(Nc2ccc(O)cc2)nc2ccccc12
- IC50 [26]: 1.64 µM (active)
- EC50 [27]: 0.578 µM (active)
- IC50 [28]: > 29.9 µM (inactive)
- AC50 [14]: 38.6 µM (active)
- EC50 [29]: > 29.9 µM (inactive)
- IC50 [30]: 4.5 µM (active)

Compound: OC(c1cc(-c2ccc(C(F)(F)F)cc2)nc(C(F)(F)F)c1)C1CCCCN1 (stereo unspecified) [ENPIROLINE]
- AC50 [18]: 3.85 µM (active)
- AC50 [31]: 6.6 µM (active)
- AC50 [32]: 6.95 µM (active)
- AC50 [2]: 41.7 µM (active)
- AC50 [3]: 17.9 µM (active)
- AC50 [24]: 4.73 µM (active)

Compound: Fc1ccc2[nH]c3c(N4CCc5ccccc5C4)ncnc3c2c1
- EC50 [33]: 3.14 µM (active)
- AC50 [18]: 24.1 µM (active)
- AC50 [31]: 3.91 µM (active)
- IC50 [21]: 5.24 µM (active)
- IC50 [34]: 1.51 µM (active)
- CC50 [10]: > 40 µM (active)
- AC50 [35]: 13.8 µM (active)
- IC50 [36]: 12.4 µM (active)
- IC50 [37]: 1.27 µM (active)
- AC50 [24]: 0.466 µM (active)

Compound: CNC(=S)NNC(=O)c1cccn(Cc2ccc(Cl)cc2Cl)c1=O
- IC50 [38]: > 94.1 µM (inactive)

Compound: CCc1nonc1NC(=O)c1oc2cc(Br)ccc2c1C
- IC50 [11]: 3.55 µM (active)
- IC50 [12]: > 138 µM (inactive)

Compound: Cc1ccc2c(c1)nnn2C1CCN(S(=O)(=O)c2ccc(C(=O)N3C(C)CCCC3C)cc2)CC1 (stereo unspecified)
- AC50 [39]: 1.29 µM (active)
- AC50 [5]: 15.8 µM (inconclusive)
- AC50 [18]: 11.4 µM (active)
- AC50 [31]: 60.8 µM (active)
- AC50 [32]: 4.53 µM (active)
- AC50 [40]: 0.158 µM (inconclusive)
- AC50 [24]: 0.695 µM (active)

Compound: O=C(N/N=C/c1cc(Cl)cc([N+](=O)[O-])c1O)c1cccc(S(=O)(=O)N2CCOCC2)c1
- IC50 [38]: > 94.1 µM (inactive)
